Data from paper PMC4686731, “Screening of Pharmacologically Active Small Molecule Compounds Identifies Antifungal Agents Against Candida Biofilms” (Frontiers in Microbiology, 2015).
Values after ≈ are worked out from the molar mass of the structure shown. Counter-ions that a name gives are not always drawn. Like-named read-outs stand apart in the source and are kept apart here.

Columns and labels:
[1] = system: C. albicans strain SC5314; experiment: High-throughput screening (HTS) with antifungal susceptibility test, CellTiter-Glo ATP read-out; assay type: cell-based, Candida albicans; conditions: for inhibition at 10 µM: Candida albicans, SC5314, 24 h
Method: (§1) The in vitro susceptibility of well-characterized wild-type C. albicans strain SC5314, which was provided by Prof. N.A.R. Gow (University of Aberdeen, Aberdeen, UK) was tested against 1280 compounds from the Library of Pharmacologically Active Compounds (LOPAC^1280TM, Sigma–Aldrich, USA). The screen was performed with C. albicans SC5314, and hits were further confirmed with the type strains C. dubliniensis MYA 577, C. glabrata ATCC 2001, C. kusei ATCC 6258, C. palapsilosis ATCC 22019, and C. tropicalis ATCC13803.
High-Throughput Screening was conducted using ASTs, according to the standard Clinical and Laboratory Standard Institute (CLSI) method ([Watamoto et al., 2009]). Inocula from 24-h yeast cultures on Sabouraud’s dextrose agar (SDA) (Gibco, UK) were adjusted to a turbidity equivalent to a 0.5 McFarland standard at 520 nm using a spectrophotometer. The suspension was diluted further with RPMI 1640 medium (Gibco, UK) to yield an inoculum concentration of 0.5 × 10^3 to 2.5 × 10^3 cells/mL. C. albicans was incubated with small-molecule compounds (10 μM) from LOPAC^1280TM, which total volume was 150 μL, in 96-well plates at 37°C for 24 h to evaluate the antifungal effects. After incubation, the viability of the fungal cells was determined using the CellTiter-Glo luminescent cell viability kit (Promega, USA). The CellTiter-Glo reagent (150 μL) was added to the medium and incubated for 15 min at room temperature with shaking at 900 rpm. The luminescent signals were detected using a luminometer (GloMax Discover System, Promega, USA). The resulting signal intensity corresponds to ATP amounts and thus to the number of viable microbial cells upon drug exposure ([Stylianou et al., 2014]). In all 96-well plates, 100 and 0% growth controls were included as microbes plus dimethyl sulfoxide (0.1%) and microbes plus amphotericin B (100 μM), respectively. All assays were performed at least as two biological replicates in triplicate. The ATP level of C. albicans cells, which corresponded to the cell metabolic activity and viability, was calculated for each compound using the following equation (Figure 1A).
Percentageinhibition=100 × 1-{(experimental-positivecontrolaverage)/(negativecontrolaverage-positivecontrolaverage)}
Wells were scored as hits if the percentage inhibition was >50%. Hit compounds were evaluated further to assess their antifungal effects.

[2] = system: C. albicans SC5314 biofilm; experiment: AST, biofilm mode; assay type: cell-based; conditions: Candida albicans, SC5314; biofilm mode (24 h biofilm); read-out: Minimum inhibitory concentration (MIC)
Method: as §1
(§2) To investigate the antifungal effects of the hit compounds, ASTs were conducted using broth microdilution assays with high cell densities of the planktonic mode, adhesion phase and biofilm mode against Candida strains (C. albicans, C. dubliniensis, C. glabrata, C. kusei, C. palapsilosis, and C. tropicalis). First, high density cell (1 × 10^7 cells/mL) suspensions were added to the RPMI medium containing each hit compound (10–1000 μM) in 96-well plates and incubated at 37°C for 24 h. Next, the 50% minimum inhibitory concentrations (MICs) of high-density Candida planktonic cultures were determined using the CellTiter-Glo luminescent cell viability kit, as described above. The antifungal effects of the hit compounds were also evaluated in the adhesion phase and the biofilm mode, in the same manner as the planktonic mode. Candida biofilms were produced as described previously ([Jin et al., 2004]). In brief, Candida cells were grown on SDA at 37°C for 18 h. A loopful of the yeast culture was then inoculated into yeast nitrogen base (YNB) (Difco, USA) medium supplemented with 50 mM glucose. After overnight broth culture in a rotary shaker at 75 rpm, the cells were washed twice with 20 mL of PBS (pH 7.2, 0.1 M). The yeast cells were re-suspended in YNB supplemented with 100 mM glucose and adjusted to an optical density of 0.38 (1 × 10^7 cells/mL) at 520 nm. This standardized cell suspension was used immediately to form biofilms in the wells of 96-well polystyrene culture plates (Iwaki, Tokyo, Japan). First, the cells were incubated for 90 min at 37°C in a shaker at 75 rpm to allow yeast adherence to the well surface (adhesion phase), before the medium was aspirated and each well was washed once with PBS to remove non-adherent cells. YNB containing 100 mM glucose was then pipetted into each well and the plate was incubated at 37°C in a shaker at 75 rpm for 24 h. Non-adherent cells were removed by pipetting and the biofilms were washed twice with PBS. Following this biofilm growth phase, microscopic examination of the cultures was performed to exclude contamination. These ASTs were repeated on three different occasions.

C. albicans SC5314 [3] = experiment: AST broth microdilution, high cell density planktonic mode; assay type: cell-based, Candida albicans; conditions: 50% MIC, planktonic mode, 1 × 10^7 cells/mL, 24 h, read-out: Minimum inhibitory concentration (MIC)
Method: as §1, §2

C. albicans SC5314 [4] = experiment: AST, adhesion phase; assay type: cell-based; conditions: Candida albicans, SC5314, 1.5 h; adhesion phase (90 min adherence); read-out: Minimum inhibitory concentration (MIC)
Method: as §1, §2

[5] = compound 10 μM, 0.5 × 10^3 to 2.5 × 10^3 cells/mL, 37°C, 24 h

CN[C@@H]1C[C@@H](c2ccc(Cl)c(Cl)c2)c2ccccc21 [Indatraline hydrochloride]
inhibition at 10 µM ([1]; read-out: percent inhibition of the metabolic activity (ATP level) of C. albicans, compound 10 μM, 0.5 × 10^3 to 2.5 × 10^3 cells/mL, 37°C, 24 h): 85.2%

C[C@@H]1[C@H](O)[C@@H](C)/C=C/C=C/C=C/C=C/C=C/C=C/C=C/[C@H](O[C@@H]2O[C@H](C)[C@@H](O)[C@H](N)[C@@H]2O)C[C@@H]2O[C@](O)(C[C@@H](O)C[C@@H](O)[C@H](O)CC[C@@H](O)C[C@@H](O)CC(=O)O[C@H]1C)C[C@H](O)[C@H]2C(=O)O [AMB, amphotericin B]
MIC [2]: 62.5 µM (≈ 57.8 µg/mL) | MIC (C. albicans SC5314 [3]): 3.9 µM (≈ 3.6 µg/mL) | MIC (C. albicans SC5314 [3]; Candida albicans, SC5314, 24 h): < 3.9 µM | MIC (C. albicans SC5314 [4]): 15.6 µM (≈ 14.4 µg/mL)

Cc1cc(N)c2ccccc2[n+]1CCCCCCCCCC[n+]1c(C)cc(N)c2ccccc21.O.[Cl-].[Cl-] [Dequalinium chloride hydrate]
percent inhibition of the metabolic activity (ATP level) of C. albicans [1, 5]: 71.5%

COc1ccc2c(c[n+](C)c3c4cc5c(cc4ccc23)OCO5)c1OC [Chelerythrine chloride]
inhibition at 10 µM ([1]; compound 10 μM, 0.5 × 10^3 to 2.5 × 10^3 cells/mL, 37°C, 24 h, read-out: percent inhibition of the metabolic activity (ATP level) of C. albicans): 82.4%

CCCCCCCCCCCCCCCC(=O)OC(CC(=O)O)C[N+](C)(C)C.[Cl-] (racemic) [Palmitoyl-DL-carnitine chloride]
percent inhibition of the metabolic activity (ATP level) of C. albicans [1, 5]: 76.0%
